The record followed here is paper PMC5519559, “Structure-Based Discovery of Small Molecule Inhibitors of Cariogenic Virulence” (Scientific Reports, 2017).

The structures appear in SMILES notation.

A word on the inhibition: it is the change of the read-out against control, counted positive when it falls. The term Kd denotes the constant that tells how readily two partners part at equilibrium. Read a low Kd as tighter binding.

For test [1], the target named is T1, GtfB (Streptococcus mutans, UniProt P08987). Put plainly: SDS-PAGE in-gel zymographic glucan-production assay at […]. Type of test: cell-based. Further details: native GtfB from culture supernatant of S. mutans GtfCD double mutant. The following applies: read-out: % inhibition at 25 μM.
Target sequence in this assay (P08987 35-1476): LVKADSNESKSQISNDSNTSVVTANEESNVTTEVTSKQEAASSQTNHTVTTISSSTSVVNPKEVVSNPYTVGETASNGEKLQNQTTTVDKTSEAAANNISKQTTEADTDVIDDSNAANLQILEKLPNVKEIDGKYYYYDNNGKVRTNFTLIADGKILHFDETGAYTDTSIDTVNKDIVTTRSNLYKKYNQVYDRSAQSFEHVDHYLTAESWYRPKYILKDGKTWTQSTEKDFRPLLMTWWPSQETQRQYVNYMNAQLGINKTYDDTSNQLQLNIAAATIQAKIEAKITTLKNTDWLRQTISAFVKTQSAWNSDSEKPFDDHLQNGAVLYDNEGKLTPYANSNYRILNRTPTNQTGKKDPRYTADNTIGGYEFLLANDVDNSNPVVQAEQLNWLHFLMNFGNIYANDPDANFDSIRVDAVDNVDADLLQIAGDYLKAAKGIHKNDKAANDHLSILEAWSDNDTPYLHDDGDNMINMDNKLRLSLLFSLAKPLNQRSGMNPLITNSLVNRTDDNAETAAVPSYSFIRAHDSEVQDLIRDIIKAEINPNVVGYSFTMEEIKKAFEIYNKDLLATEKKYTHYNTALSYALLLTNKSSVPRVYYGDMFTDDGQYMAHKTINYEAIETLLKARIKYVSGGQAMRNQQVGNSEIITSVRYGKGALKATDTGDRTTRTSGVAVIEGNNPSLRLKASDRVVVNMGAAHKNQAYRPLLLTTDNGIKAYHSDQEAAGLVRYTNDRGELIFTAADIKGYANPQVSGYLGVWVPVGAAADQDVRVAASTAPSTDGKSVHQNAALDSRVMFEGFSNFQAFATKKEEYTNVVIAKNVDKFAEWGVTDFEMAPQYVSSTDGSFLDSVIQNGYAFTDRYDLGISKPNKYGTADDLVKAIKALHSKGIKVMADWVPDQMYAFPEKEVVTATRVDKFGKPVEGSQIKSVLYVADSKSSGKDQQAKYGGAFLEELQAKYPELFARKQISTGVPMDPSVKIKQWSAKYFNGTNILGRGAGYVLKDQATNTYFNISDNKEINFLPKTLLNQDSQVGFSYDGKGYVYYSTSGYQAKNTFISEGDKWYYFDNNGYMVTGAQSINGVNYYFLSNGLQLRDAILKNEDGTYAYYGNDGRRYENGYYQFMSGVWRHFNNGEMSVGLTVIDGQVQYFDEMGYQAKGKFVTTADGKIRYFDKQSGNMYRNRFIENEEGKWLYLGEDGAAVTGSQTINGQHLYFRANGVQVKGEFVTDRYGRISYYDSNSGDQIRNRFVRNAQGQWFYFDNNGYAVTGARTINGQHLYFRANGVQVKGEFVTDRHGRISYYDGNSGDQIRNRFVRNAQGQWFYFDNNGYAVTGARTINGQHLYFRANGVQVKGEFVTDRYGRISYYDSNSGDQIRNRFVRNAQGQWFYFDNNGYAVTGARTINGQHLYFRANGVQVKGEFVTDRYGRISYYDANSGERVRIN
In test [2] the target is T2, GtfC (Streptococcus mutans, UniProt P13470). Described as above. It counts as cell-based. Also noted: native GtfC from culture supernatant of S. mutans GtfBD double mutant. The conditions noted are these: read-out: % inhibition at 25 μM.
Target sequence in this assay (P13470 35-1455): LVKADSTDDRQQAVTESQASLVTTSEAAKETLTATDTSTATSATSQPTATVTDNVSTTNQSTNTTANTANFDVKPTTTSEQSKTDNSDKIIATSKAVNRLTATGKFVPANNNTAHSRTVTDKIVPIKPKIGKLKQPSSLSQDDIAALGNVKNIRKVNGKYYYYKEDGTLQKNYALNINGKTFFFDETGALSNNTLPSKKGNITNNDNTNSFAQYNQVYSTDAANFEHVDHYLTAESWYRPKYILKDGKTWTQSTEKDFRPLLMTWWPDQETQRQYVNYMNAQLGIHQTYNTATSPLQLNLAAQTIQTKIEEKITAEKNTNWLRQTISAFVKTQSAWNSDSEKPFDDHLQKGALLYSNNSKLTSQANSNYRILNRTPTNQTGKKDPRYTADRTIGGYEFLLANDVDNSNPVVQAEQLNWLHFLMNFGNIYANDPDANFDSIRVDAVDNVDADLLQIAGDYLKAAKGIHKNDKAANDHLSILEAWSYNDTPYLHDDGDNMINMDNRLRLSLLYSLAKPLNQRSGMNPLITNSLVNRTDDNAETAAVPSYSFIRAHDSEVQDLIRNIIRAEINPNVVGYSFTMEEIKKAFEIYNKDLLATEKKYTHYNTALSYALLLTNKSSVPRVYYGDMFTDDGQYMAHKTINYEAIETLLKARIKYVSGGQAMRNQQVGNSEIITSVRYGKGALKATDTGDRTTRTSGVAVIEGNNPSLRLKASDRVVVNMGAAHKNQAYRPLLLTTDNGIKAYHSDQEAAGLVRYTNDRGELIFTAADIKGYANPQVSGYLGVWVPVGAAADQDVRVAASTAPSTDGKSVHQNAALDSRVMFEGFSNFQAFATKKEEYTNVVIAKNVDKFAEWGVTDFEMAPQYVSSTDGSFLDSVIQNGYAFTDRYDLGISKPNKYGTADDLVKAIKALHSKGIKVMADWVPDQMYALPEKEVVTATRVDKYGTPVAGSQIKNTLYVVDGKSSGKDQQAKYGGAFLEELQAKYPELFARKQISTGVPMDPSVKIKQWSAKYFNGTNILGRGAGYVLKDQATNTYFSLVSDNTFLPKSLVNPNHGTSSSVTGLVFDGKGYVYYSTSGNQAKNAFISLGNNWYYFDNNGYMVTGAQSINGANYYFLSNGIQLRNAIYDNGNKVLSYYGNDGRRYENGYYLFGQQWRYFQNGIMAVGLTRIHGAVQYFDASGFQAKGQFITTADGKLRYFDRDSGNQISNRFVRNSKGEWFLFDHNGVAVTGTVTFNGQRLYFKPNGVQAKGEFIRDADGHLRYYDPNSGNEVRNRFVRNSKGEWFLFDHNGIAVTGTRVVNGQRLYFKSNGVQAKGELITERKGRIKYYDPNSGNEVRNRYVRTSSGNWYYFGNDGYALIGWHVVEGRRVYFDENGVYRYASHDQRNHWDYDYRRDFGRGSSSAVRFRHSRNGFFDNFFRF
The target in test [3] is T1, GtfB. Description: Binding study (Octet, details in supplement); weak inactive analog. Further details: catalytic domain, residues 268 aa–1074 aa. On the technique in general: BLI is a label-free optical method that tracks binding on a fibre tip over time.
Target sequence in this assay (P08987 268-1074): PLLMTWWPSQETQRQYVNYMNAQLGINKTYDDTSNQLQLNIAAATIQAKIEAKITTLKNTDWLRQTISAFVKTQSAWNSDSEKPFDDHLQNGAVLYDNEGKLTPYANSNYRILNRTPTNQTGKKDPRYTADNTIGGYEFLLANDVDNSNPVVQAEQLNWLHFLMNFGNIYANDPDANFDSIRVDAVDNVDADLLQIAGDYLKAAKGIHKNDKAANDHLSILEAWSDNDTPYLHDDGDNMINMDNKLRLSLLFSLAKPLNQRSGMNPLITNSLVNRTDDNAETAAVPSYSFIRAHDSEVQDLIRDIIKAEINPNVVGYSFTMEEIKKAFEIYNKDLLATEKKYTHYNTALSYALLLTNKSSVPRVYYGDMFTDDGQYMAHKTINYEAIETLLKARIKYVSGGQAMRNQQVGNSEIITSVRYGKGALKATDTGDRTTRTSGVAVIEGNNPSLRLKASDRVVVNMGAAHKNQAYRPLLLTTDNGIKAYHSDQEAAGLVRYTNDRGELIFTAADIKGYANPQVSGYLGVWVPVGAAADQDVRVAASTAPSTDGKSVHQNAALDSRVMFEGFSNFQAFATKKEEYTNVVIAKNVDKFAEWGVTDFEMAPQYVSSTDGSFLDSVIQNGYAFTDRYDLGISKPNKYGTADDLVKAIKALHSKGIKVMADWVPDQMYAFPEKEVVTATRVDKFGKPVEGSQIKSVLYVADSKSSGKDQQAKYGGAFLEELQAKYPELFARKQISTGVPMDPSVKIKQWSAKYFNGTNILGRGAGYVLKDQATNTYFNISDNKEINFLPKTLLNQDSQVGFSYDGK
Test [4] addresses T2, GtfC. Description: Bio-layer interferometry (OctetRed96), […] binding model; supported by zymographic inhibition ([…] at […]). Further details: his-tagged catalytic domain, residues 295 aa–1103 aa.
Target sequence in this assay (P13470 295-1103): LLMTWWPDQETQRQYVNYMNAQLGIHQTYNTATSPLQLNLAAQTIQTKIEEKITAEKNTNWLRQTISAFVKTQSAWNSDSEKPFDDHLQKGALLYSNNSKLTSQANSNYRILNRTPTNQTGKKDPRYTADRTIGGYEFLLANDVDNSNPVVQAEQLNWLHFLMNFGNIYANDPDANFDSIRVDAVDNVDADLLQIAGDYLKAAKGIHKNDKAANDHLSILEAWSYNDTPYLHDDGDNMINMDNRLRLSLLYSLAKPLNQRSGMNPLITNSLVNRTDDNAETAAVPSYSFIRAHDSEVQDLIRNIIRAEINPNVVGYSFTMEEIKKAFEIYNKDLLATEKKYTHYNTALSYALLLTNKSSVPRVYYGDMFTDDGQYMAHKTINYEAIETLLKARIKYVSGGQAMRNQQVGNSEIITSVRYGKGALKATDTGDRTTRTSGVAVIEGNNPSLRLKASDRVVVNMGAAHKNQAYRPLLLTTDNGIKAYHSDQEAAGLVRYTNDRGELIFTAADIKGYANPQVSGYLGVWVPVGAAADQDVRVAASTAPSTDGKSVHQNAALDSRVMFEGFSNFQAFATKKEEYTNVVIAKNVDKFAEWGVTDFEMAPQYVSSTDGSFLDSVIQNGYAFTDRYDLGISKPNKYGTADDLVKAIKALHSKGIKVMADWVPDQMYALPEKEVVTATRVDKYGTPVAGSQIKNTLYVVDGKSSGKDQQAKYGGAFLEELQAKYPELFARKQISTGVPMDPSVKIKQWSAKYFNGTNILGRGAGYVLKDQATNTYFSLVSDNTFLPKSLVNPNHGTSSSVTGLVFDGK
For test [5], the target named is T1, GtfB. Described as above. Further details: his-tagged catalytic domain, residues 268 aa–1074 aa.
Target sequence in this assay (P08987 268-1074): as the sequence (P08987 268-1074) above

Regarding `O=C(c1ccc(F)cc1)c1ccc(-c2[nH]c(-c3ccc([N+](=O)[O-])cc3O)nc2-c2ccccc2)cc1` [#G16], the inhibition at 25 µM at GtfB [1] is around 60%; on GtfC [2] it was around 70%.
Compound `O=C(Nc1ccccc1)c1cc2cc([N+](=O)[O-])ccc2s1` [#G43-D] registered a Kd on GtfB [3] of 68 µM.
Turning to `NC(=O)c1ccccc1NC(=O)c1cc2cc([N+](=O)[O-])ccc2s1` [#G43], the Kd on GtfC [4] stood at 0.0469 µM; at GtfB [5] it was 3.7 µM.
